According to patent US9062070B2, “Inhibitors of the renal outer medullary potassium channel” (Merck Sharp & Dohme Corp., priority 2011, dated 2015):

Experiments:
hROMK (hKir1.1) = hROMK (hKir1.1) (Homo sapiens (Human), UniProt P48048); test: Thallium Flux Assay (ROMK channel functional thallium flux, FLIPR-Tetra); format: cell-based; details: HEK293 cells stably expressing hROMK (hKir1.1)
Experimental: HEK293 cells stably expressing hROMK (hKir1.1) were grown at 37° C. in a 10% CO2 humidified incubator in complete growth media: Dulbecco's Modified Eagle Medium supplemented with non-essential amino acids, Penicillin/Streptomycin/Glutamine, G418 and FBS. At >80% confluency, aspirate the media from the flask and rinse with 10 mL Calcium/Magnesium-free PBS. Add 5 mL of 1× trypsin (prepared in Ca/Mg Free PBS) to T-225 flask and return flask to 37° C./CO2 incubator for 2-3 minutes. To dislodge the cell, gently bang the side of the flask with your hand. Triturate the cells completely and then transfer the cells to 25 mL complete media. Centrifuge at 1,500 rpm for 6 min followed by resuspension in complete growth media and determine cell concentration. For typical re-seeding, 4E6 cells/T-225 flask will attain>80% confluency in 4 days. Under ideal growth conditions and appropriate tissue culture practices, this cell line is stable for 40-45 passages.
• FluxOR™ Reagent (Component A) • FluxOR™ Assay Buffer (Component B)—10× Concentrate • PowerLoad™ Concentrate (Component C)—100× Concentrate • Probenecid (Component D)—Lyophilized sample is kept at −20° C. Water soluble, 100× after solubilization in 1 mL water. Store at 4° C. • FluxOR™ Chloride-free Buffer (Component E)—5× Concentrate • Potassium sulfate (K2SO4) Concentrate (Component F)—125 mM in water. Store at 4° C. • Thallium sulfate (Tl2SO4) Concentrate (Component G)—50 mM in water. Store at 4° C. • DMSO (dimethyl sulfoxide, Component H)—1 mL (100%) Reagent Preparation: FluxOR Working Solutions • 1000× FluxOR™ Reagent: Reconstitute a vial of component A in 100 μl DMSO; Mix well; Store 10 μl aliquots at −20° C. • 1× FluxOR™ Assay Buffer: Dilute Component B 10-fold with water; Adjust pH to 7.4 with Hepes/NaOH; Filter and store at 4° C. • Probenecid/Assay Buffer: 100 mL of 1× FluxOR™ Assay Buffer; 1 mL of reconstituted component D; Store at 4° C. • Loading Buffer (per microplate): 10 μl 1000× FluxOR™ Reagent; 100 μl component C; 10 mL Probenecid/Assay Buffer • Compound Buffer (per microplate): 20 mL Probenecid/Assay Buffer; 0.3 mM ouabain (10 mM ouabain in water can be stored in amber bottle/aluminum foil at room temperature); Test compound • 1× FluxOR™ Chloride-Free Buffer: Prepare 1× working solution in water. Can be stored at room temperature • Stimulant Buffer (prepared at 5× final concentration in 1× FluxOR™ Chloride-Free Buffer): 7.5 mM Thallium sulfate and 0.75 mM Potassium sulfate (to give a final assay concentration of 3 mM Thallium/0.3 mM Potassium). Store at 4° C. when not in use. If kept sterile, this solution is good for months. Assay Protocol—
The ROMK channel functional thallium flux assay is performed in 384 wells, using the FLIPR-Tetra instrument. HEK-hKir1.1 cells are seeded in Poly-D-Lysine microplates and kept in a 37° C.-10% CO2 incubator overnight. On the day of the experiment, the growth media is replaced with the FluxOR™ reagent loading buffer and incubated, protected from light, at ambient temperature (23-25° C.) for 90 min. The loading buffer is replaced with assay buffer±test compound followed by 30 min incubation at ambient temperature, where the Thallium/Potassium stimulant is added to the microplate.
• 1. Seed HEK-hKir1.1 cells (50 μl at 20,000 cells/well) in 384-well PDL coated Microplates • 2. Allow cells to adhere overnight in humidified 37° C./10% CO2 incubator • 3. Completely remove cell growth media from microplate and replace with 25 μl loading buffer • 4. Incubate Microplate at room temperature, protected form light, for 90 min • 5. Remove loading buffer and replace with 25 μl 1× Assay Buffer±test compound. • 6. Incubate microplate at room temperature, protected form light, for 30 min • 7. At FLIPR-Tetra 384: Add stimulant (Thallium/Potassium) solution to microplate and monitor fluorescence. Excitation=400 nm, Emission=460 & 580 nm. Collect data for ˜10 min. Data Calculation—

Kir1.1 (ROMK1) = Kir1.1 (ROMK1) (Homo sapiens (Human), UniProt P48048); test: Electrophysiology Assay (whole cell voltage clamp, IonWorks Quattro); format: cell-based; details: Chinese hamster ovary cells stably expressing Kir1.1; block during voltage step to 0 mV
Kir1.1 (ROMK1), sequence (P48048 whole entry): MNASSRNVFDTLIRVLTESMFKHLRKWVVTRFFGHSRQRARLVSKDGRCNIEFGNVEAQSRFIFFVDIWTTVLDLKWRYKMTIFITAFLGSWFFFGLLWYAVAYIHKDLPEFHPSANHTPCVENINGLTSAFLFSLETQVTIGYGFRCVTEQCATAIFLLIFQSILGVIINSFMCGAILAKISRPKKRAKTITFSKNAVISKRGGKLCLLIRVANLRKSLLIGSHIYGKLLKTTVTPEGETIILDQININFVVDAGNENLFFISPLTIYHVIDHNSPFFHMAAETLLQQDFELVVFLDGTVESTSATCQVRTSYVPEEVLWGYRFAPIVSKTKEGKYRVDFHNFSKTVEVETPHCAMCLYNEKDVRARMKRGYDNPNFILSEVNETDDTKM
Experimental: Block of Kir1.1 (ROMK1) currents was examined by whole cell voltage clamp (Hamill et. al. […] Prior to an experiment, Kir1.1 expression was induced by overnight incubation with 1 mM sodium butyrate. […] After centrifugation, the cell pellet was resuspended in approximately 4.0 mL of bath solution and placed in the IonWorks instrument. The intracellular solution consisted of (in mM): 80 K gluconate, 40 KCl, 20 KF, 3.2 MgCl2, 3 EGTA, 5 Hepes, pH 7.4. […] Amphotericin B (Sigma A-4888) was prepared as a 40 mg/mL solution in DMSO. Voltage protocols and current recordings were performed using the IonWorks HT software/hardware system. […] No correction for liquid junction potentials was used. The test pulse, consisting of a 100 ms step to 0 mV from a holding potential of −70 mV, followed by a 100 ms voltage ramp from −70 mV to +70 mV, was applied before and after a 6 min compound incubation period. Test compounds were prepared by diluting DMSO stock solutions into the bath solution at 3× the final concentration and placed in the instrument in 96-well polypropylene plates. Current amplitudes were measured using the IonWorks software. To assess compound potency, the fractional block during the voltage step to 0 mV was calculated in Microsoft Excel (Microsoft, Redmond, Calif.), and dose-response curves were fitted with Igor Pro 4.0 (WaveMetrics, Lake Oswego, Oreg.).

hROMK (hKir1.1), sequence (P48048 whole entry): as above

Compound	IC50 (hROMK (hKir1.1)) [nM]	IC50 (Kir1.1 (ROMK1)) [nM]
Cc1c([C@@H]2CN3CCN(C(=O)C4CCc5nc(-n6cnnn6)ncc54)C[C@@H]3CO2)ccc(F)c1C#N (single isomer, unassigned) [Example 2D]	130	100
Cc1c([C@@H]2CN3CCN(C(=O)C4CCc5nc(-n6cnnn6)ccc54)C[C@H]3CN2)ccc(F)c1C#N (stereo partly shown) [Example 98]	390	170
Cc1c([C@@H]2CN3CCN(C(=O)C4CCCc5nc(-n6cnnn6)ccc54)C[C@@H]3CO2)ccc(F)c1C#N (stereo partly shown) [Example 12]	450	160
N#Cc1c(F)ccc([C@@H]2CN3CCN(C(=O)C4CCc5nc(-n6cnnn6)ccc54)C[C@H]3CO2)c1F (stereo partly shown) [Example 18]	400	110
Cc1c([C@H]2CN3CCN(C(=O)C4CCc5nc(-n6cnnn6)ncc54)C[C@H]3CO2)ccc(F)c1C#N (single isomer, unassigned) [Example 2H]	140	100
Cc1c([C@H]2CN3CCN(C(=O)C4CCc5cc(-n6cnnn6)ncc54)C[C@H]3CO2)ccc(F)c1C#N (stereo partly shown) [Example 36]	660	140
Cc1c([C@@H]2CN3CCN(C(=O)C4CCc5cc(-n6cnnn6)ncc54)C[C@H]3CN2)ccc(F)c1C#N (single isomer, unassigned) [Example 96B]	> 1000	> 1000
Cc1c([C@H]2CN3CCN(C(=O)C4CCc5nc(-n6cnnn6)ccc54)C[C@@H]3CO2)ccc(F)c1C#N (stereo partly shown) [Example 34]	120	160
Cc1c([C@H]2CN3CCN(C(=O)C4CCc5cc(-n6cnnn6)ncc54)C[C@@H]3CO2)ccc(F)c1C#N (stereo partly shown) [Example 40]	270	120
Cc1c([C@H]2CN3CCN(C(=O)C4CCc5cc(-n6cnnn6)cnc54)C[C@@H]3CO2)ccc(F)c1C#N (stereo partly shown) [Example 39]	600	390
Cc1c([C@@H]2CN3CCN(C(=O)C4CCc5nc(-n6cnnn6)ccc54)C[C@H]3CO2)ccc(F)c1C#N (stereo partly shown) [Example 7]	140	80
Cc1c([C@@H]2CN3CCN(C(=O)C4CCCc5nc(-n6cnnn6)ccc54)C[C@H]3CO2)ccc(F)c1C#N (stereo partly shown) [Example 10]	410	180
N#Cc1c(F)ccc([C@@H]2CN3CCN(C(=O)C4CCc5nc(-n6cnnn6)ncc54)C[C@@H]3CO2)c1Cl (stereo partly shown) [Example 82]	140	50
N#Cc1c(F)ccc([C@@H]2CN3CCN(C(=O)C4CCc5nc(-n6cnnn6)ncc54)C[C@@H]3CO2)c1Cl (stereo partly shown) [Example 81]	170	60
Cc1c(C#N)cccc1[C@@H]1CN2CCN(C(=O)C3CCc4nc(-n5cnnn5)ccc43)C[C@H]2CO1 (stereo partly shown) [Example 71]		120
Cc1c([C@@H]2CN3CCN(C(=O)C4CCc5nc(-n6cnnn6)ncc54)C[C@H]3CO2)ccc(F)c1C#N (single isomer, unassigned) [Example 2F]	390	
Cc1c([C@@H]2CN3CCN(C(=O)C4CCc5nc(-n6cnnn6)ncc54)C[C@H]3CO2)ccc(F)c1C#N (single isomer, unassigned) [Example 2E]	130	
